Results as given in PubChem BioAssay AID2060603 (Molecular Pharmacology Branch, DTP, NCI, 2025).
“And” between values parts separate entries of the source, which are not always exact repeats. Identical values can stand only once.

Tested on: 422866-222-R5-J1-PDC spheroid viability
Experiment: Anticancer human tumor 422866-222-R5-J1-PDC patient-derived pancreatic adenocarcinoma cell line growth inhibition [CLK]
Details: spheroids with HUVEC and MSC; for viability, T/C: stronger effect = lower value
Excerpt: A high-throughput screen of multi-cell type tumor spheroids was designed to identify active combinations of […] and targeted small molecules. Complex spheroids include a stromal component modeled by human endothelial cells (HUVEC) and fibroblasts modeled by human mesenchymal stem cells (MSCs). The concentration ranges selected for each drug and investigational agent were based upon clinically achievable concentrations if the clinical Cmax of the agent was known.
Compounds. The drugs and investigational agents: cirtuvivint (SM08502; NSC835563), CC-671 (NSC850746), vemurafenib (NSC761431), tapotoclax (NSC804041), sotorasib (NSC818433), adagrasib (NSC831453), MRTX-1133 (NSC836407), BAY2416964 (NSC825713), copanlisib (NSC816437), inavolisib (NSC800729), abemaciclib (NSC768073), osimertinib (NSC779217), entinostat (NSC756642), eltanexor (KPT-8602, NSC794443), venetoclax (NSC766270), ceralasertib (NSC777638), bortezomib (NSC756655), olaparib (NSC753686), talazoparib (NSC767125), alisertib (NSC759677), peposertib (NSC802822), gemcitabine (NSC613327), 5-fluorouracil (NSC19893), SN-38 (NSC673596), oxaliplatin (NSC266046), paclitaxel (NSC125973), and doxorubicin (NSC123127), were obtained from the National Cancer Institute (NCI) Developmental Therapeutics Program Chemical Repository. The FDA-approved anticancer drug set is available from the Developmental Therapeutics Program at https://dtp.cancer.gov/organization/dscb/obtaining/available plates.htm. […] The stock solutions were prepared in dimethyl sulfoxide (DMSO, Sigma-Aldrich, St. Louis, MO, cat. D2650), except for the platinum complexes which were prepared in saline (Quality Biological, Gaithersburg, MD, cat. 114-055-101), at 800-fold the tested concentration and stored at -70 degrees C prior to their use. All drugs and investigational agents were tested over a range starting from a high concentration at or near the clinical Cmax and decreasing in half-log increments. If the clinical Cmax for an agent had not been determined, the highest concentration tested was 10 microM.
Cell Culture. All cells were maintained in an incubator at 37 degrees C and 5% CO2 with 95% humidity. The PDC lines were cultured according to standard operating procedures established by the NCI PDMR. Briefly, all PDCs were thawed and cultured in Matrigel-coated flasks prepared with a working solution of 1X Ham's F-12 nutrient mix, without supplementation (Invitrogen, Waltham, MA, cat. 11765054), 100 U/mL penicillin-streptomycin (Invitrogen, cat. 15140122), and 2.5% Matrigel (Corning Inc., Corning, NY, cat. 354248) for the first three passages. The 947758-054-R-J2-PDC line was cultured in 6B/Colon 1A media, which includes advanced DMEM/F-12 (Thermo Fisher Scientific, cat. 12634028), 10 mM HEPES (Thermo Fisher Scientific, cat. 15630080), 1X GlutaMAX supplement (Thermo Fisher Scientific, cat. 35050061), 0.1 mg/mL primocin (InvivoGen, cat. ant-pm-2), 10% defined fetal bovine serum, heat inactivated (HyClone Laboratories Inc., cat. SH30070.03HI), 1.25 mM N-Acetyl-L-cysteine (Sigma-Aldrich, cat. A9165), 10 mM nicotinamide (Sigma-Aldrich, cat. N0636), 1X B-27 supplement (Thermo Fisher Scientific, cat. 17504044), 1X N-2 supplement (Thermo Fisher Scientific, cat. 17502048), and 10 microM Y-27632 dihydrochloride (Tocris Bioscience, cat. 1254). The 876862-298-R-J1-PDC was cultured in 6E media, which includes all 6B/Colon 1A media components plus 50% L-WRN conditioned media (ATCC, cat. CRL-3276), 50 ng/mL recombinant human EGF recombinant protein (hEGF; Thermo Fisher Scientific, cat. PHG0311), 10 ng/mL recombinant human fibroblast growth factor 10 (hGFG-10; PeproTech, cat. 100-26), 1 ng/mL recombinant human fibroblast growth factor 2 (hFGF-2; PeproTech, cat. 100-18B), and 1 µM prostaglandin E2 (PGE2; Tocris, cat. 2296). The 227483-062-R1-J1-PDC line was cultured in Panc media, containing all 6E components except hFGF-2, with the addition of 500 nM SB-431542 (Selleckchem, cat. S1067) and 10 nM gastrin (Tocris, cat. 3006). […]
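Further: spheroids exposed to agents for seven days before readout.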

| SMILES | viability, T/C (compound 0.0316 µM) | viability, T/C (compound 0.1 µM) | viability, T/C (compound 0.316 µM) | viability, T/C (compound 1 µM) | viability, T/C (compound 3.16 µM) | viability, T/C (compound 10 µM) | IC50 (curve of compound) | IC50 (compound alone, run of 08/14/2023) |
| --- | --- | --- | --- | --- | --- | --- | --- | --- |
| CC(=O)O[C@H]1C(=O)[C@@]2(C)[C@H]([C@H](OC(=O)c3ccccc3)[C@]3(O)C[C@H](OC(=O)[C@H](O)[C@@H](NC(=O)c4ccccc4)c4ccccc4)C(C)=C1C3(C)C)[C@]1(OC(C)=O)CO[C@@H]1C[C@@H]2O | 68% and 69.8% | 69.3% and 72.6% | 63.8% and 66.3% | 68.3% and 75.5% | 72.2% and 76% | 85.7% and 81.6% | > 10 µM |  |
| CC(CO)NC(=O)c1cc(-c2ccc(Cl)cc2)nn(-c2cnn(C)c2)c1=O (stereo unspecified) | 93.7% and 89.7% | 96.4% and 110% | 90.4% and 96.5% | 106% and 108% | 96.3% and 107% | 78.1% and 83% | > 10 µM |  |
| CC(Nc1ccc2c(c1)OCCn1cc(N3C(=O)OCC3C(F)F)nc1-2)C(N)=O (stereo unspecified) | 76.1% and 62.1% | 67.9% and 53.8% | 46.1% and 36.7% | 42.5% and 38.5% | 34.2% and 31.7% | 32% and 27.6% | 0.308 µM and 0.113 µM |  |
| CC1(C)CCC(CN2CCN(c3ccc(C(=O)NS(=O)(=O)c4ccc(NCC5CCOCC5)c([N+](=O)[O-])c4)c(Oc4cnc5[nH]ccc5c4)c3)CC2)=C(c2ccc(Cl)cc2)C1 | 89.7% and 94.5% | 95.6% and 97.1% | 103% and 77.2% | 105% and 92.1% | 99.1% and 120% | 69.8% and 69% | > 10 µM |  |
| CC1COCCN1c1cc(C2(S(C)(=N)=O)CC2)nc(-c2ccnc3[nH]ccc23)n1 (stereo unspecified) | 94.6% and 88.6% | 92.4% and 94.7% | 97.3% and 95.7% | 94.2% and 94.3% | 66.9% and 58.5% | 54.5% and 47.8% | > 10 µM and 7.89 µM |  |
| CN1CCN(c2cc(C(=O)Nc3cc4cc(-c5cnn(C)c5)ccc4cn3)ccn2)CC1 |  |  |  | 25.8% [middle of 12 runs] | 11% [middle of 12 runs] | 2.14% [middle of 12 runs] |  | 650 nM [middle of 12 runs] |
| COc1ccc([C@@H](O)c2cc(-c3ncnc4cc(N5CCOCC5)ccc34)c(F)cc2Cl)nn1 | 88.1% and 94.1% | 105% and 99% | 80.7% and 76.8% | 66.4% and 61.3% | 47.2% and 38.6% | 35.5% and 29.1% | 2.5 µM and 1.71 µM |  |
| COc1cccc2c1C(=O)c1c(O)c3c(c(O)c1C2=O)CC(O)(C(=O)CO)CC3OC1CC(N)C(O)C(C)O1 (stereo unspecified) | 57.2% and 67.1% | 65.7% and 52.3% | 44.2% and 30.3% | 32.1% and 27% | 28.3% and 26.7% | 30.9% and 26% | 0.215 µM and 0.113 µM |  |
| Nc1ccccc1NC(=O)c1ccc(CNC(=O)OCc2cccnc2)cc1 | 102% and 93.7% | 129% and 108% | 144% and 139% | 106% and 104% | 78.5% and 92.5% | 86.9% and 81.8% | > 10 µM |  |
| Nc1ccn(C2OC(CO)C(O)C2(F)F)c(=O)n1 (stereo unspecified) | 73.9% and 72.8% | 60.1% and 44.8% | 44.6% and 38% | 41.9% and 46.5% | 41.6% and 39.7% | 36.3% and 40.9% | 0.221 µM and 0.0795 µM |  |
| O=C(c1cc(Cc2n[nH]c(=O)c3ccccc23)ccc1F)N1CCN(C(=O)C2CC2)CC1 | 99% and 103% | 94% and 98.7% | 102% and 87.7% | 102% and 105% | 80.1% and 94% | 81.2% and 78.8% | > 10 µM |  |
| O=c1[nH]cc(F)c(=O)[nH]1 | 101% and 102% | 95.5% and 95.8% | 91.1% and 85.6% | 98% and 85.2% | 65.5% and 77.1% | 90.2% and 74.7% | > 10 µM |  |
